{"source": "patent US20210052882A1", "about": "“ENHANCED TREATMENT VOLUME AND SELECTIVE ABLATION USING ELECTROPORATION WITH ADJUVANT CALCIUM” (Virginia Tech Intellectual Properties, Inc., priority 2019, published 2021)", "key": {"cells": {"tested_on": "cells", "assay": "Toxicity of calcium chloride to cells at the concentrations used", "type": "cell-based"}, "[1]": {"tested_on": "U251 malignant glioma cells", "assay": "Reversible electroporation zone in collagen scaffolds imaged immediately after H-FIRE treatment", "type": "cell-based", "protocol": "After pulsing, CaCl2, NaCl, KCl, and CaCl2/NaCl solutions were removed and cell culture media was added to each scaffold. For irreversible threshold experiments, the scaffolds were returned to the incubator for 24 hr prior to live/dead staining. For reversible threshold experiments, scaffolds were imaged immediately after treatment.\nTo visualize ablations, a live/dead stain was performed to visualize live and dead regions of cells in the scaffold. Scaffolds were incubated with 2 μM Calcein AM and 23 μM propidium iodide in phosphate buffered saline (PBS) for 30 minutes at room temperature. Scaffolds were then washed 2× with PBS prior to imaging using an inverted microscope (DMI 6000B, Leica Microsystems) with a 5× objective. Lesion areas were quantified for each treatment using a MATLAB algorithm. Since 24 h post treatment is sufficient to allow any reversibly electroporated cells to recover (as pore resealing happens on the order of minutes), staining the cells immediately after treatment and 24 h later allows for quantification of both the reversible zone of electroporation and irreversible zones of ablation.\nTo stain the scaffolds, media was removed and replaced with phosphate buffered saline (PBS) containing 2 μM Calcein AM (Invitrogen) and 23 μM PI (Invitrogen) and incubated at room temperature for 30 min. Scaffolds were then washed twice with PBS prior to imaging using an inverted microscope (DMI 6000B, Leica Microsystems) with a 5× objective, filter cubes, and an EM-CCD camera (Hamamatsu C9100). The appropriate filters were used to image Calcein AM (Ex:460-500, DC: 505, EM: 570-640) and propidium iodide (EX:545/26, DC:565, EM:605/70). To determine the reversible zone of electroporation, treatment followed the same electroporation protocol, but Calcein AM and PI were added to the CaCl2 and NaCl solutions at all steps prior to pulsing. Scaffolds were then imaged immediately after treatment.\nIrreversible electroporation experiments were repeated 6-12 times for each condition. Reversible electroporation experiments were repeated at least six times. Discrepancies in the number of replicates between conditions were due to bubbles or other defects that may have changed the electric field distribution or prohibited a reliable measurement of ablation area. These scaffolds were excluded from analysis. Two-way ANOVA was used to test for differences in cell death area due to the different applied solutions and pulse waveforms. Tukey post-hoc comparisons were used to examine differences among treatment groups. Statistical analyses were performed with a confidence level of α=0.05 (MP Pro 14). Results are shown as means±standard deviation.\nTo investigate how CaCl2 and NaCl treatments affect permeabilization of the cells, the areas for reversible electroporation and their corresponding reversible electric field thresholds were characterized. Reversible electroporation thresholds for H-FIRE treatment have not been extensively characterized, making this work one of the first to quantify reversible thresholds for a range of unexplored pulse durations."}}}
{"smiles": "[Ca+2].[Cl-].[Cl-]", "note": "[CaCl2, calcium chloride]", "values": [{"measurement": "toxicity to cells", "setting": "cells", "result": "non-toxic"}, {"measurement": "reversible zone larger than the 1 mM NaCl zone", "setting": "[1]; 1 mM CaCl2, 2-1-2 waveform", "result": 1.56, "unit": "×"}, {"measurement": "reversible zone larger than the 1 mM NaCl zone", "setting": "[1]; 1 mM CaCl2, 5-1-5 waveform", "result": 1.7, "unit": "×"}, {"measurement": "reversible zone larger than the 1 mM NaCl zone", "setting": "[1]; 1 mM CaCl2, 10-1-10 waveform", "result": 1.42, "unit": "×"}, {"measurement": "reversible zone larger than the 1 mM NaCl zone", "setting": "[1]; 5 mM CaCl2, 2-1-2 waveform", "result": 1.66, "unit": "×"}, {"measurement": "reversible zone larger than the 1 mM NaCl zone", "setting": "[1]; 5 mM CaCl2, 5-1-5 waveform", "result": 1.73, "unit": "×"}, {"measurement": "reversible zone larger than the 1 mM NaCl zone", "setting": "[1]; 5 mM CaCl2, 10-1-10 waveform", "result": 1.46, "unit": "×"}, {"measurement": "reversible zones larger than irreversible zones", "setting": "[1]; 2-1-2 waveform, 1 mM", "result": 2.62, "unit": "×"}, {"measurement": "reversible zones larger than irreversible zones", "setting": "[1]; 2-1-2 waveform, 5 mM", "result": 1.47, "unit": "×"}, {"measurement": "reversible zones larger than irreversible zones", "setting": "[1]; 5-1-5 waveform, 1 mM", "result": 1.67, "unit": "×"}, {"measurement": "reversible zones larger than irreversible zones", "setting": "[1]; 5-1-5 waveform, 5 mM", "result": 1.3, "unit": "×"}, {"measurement": "reversible zones larger than irreversible zones", "setting": "[1]; 10-1-10 waveform, 1 mM", "result": 1.32, "unit": "×"}, {"measurement": "reversible zones larger than irreversible zones", "setting": "[1]; 10-1-10 waveform, 5 mM", "result": 1.59, "unit": "×"}, {"measurement": "difference between reversible and irreversible electroporation areas", "setting": "[1]; FIG. 10", "result": "decreased"}, {"measurement": "difference between 1 mM and 5 mM treatments, reversible case", "setting": "[1]; imaged immediately after treatment", "result": "no statistically significant difference"}]}
